According to patent publication USRE38169E1, “Hyperstabilizing antisense nucleic acid binding agents” (priority 1993, dated 2003):

Columns and labels:
[1] = tested on: DNA sense (SEQ ID NO. 1) / DNA-PS antisense duplex (PO-PS); experiment: Binding of drug to duplex (NACS column, A365/A260); design: species or system equine infectious anemia retrovirus; settings: for Final D/N (CC-1065/nucleotide) Bound to Duplex: PO-PS
Method: (§1) Oligodeoxyribonucleotides were obtained by chemical synthesis through standard techniques on an automated synthesizer located in the Department of Veterinary Microbiology and Parasitology at Louisiana State University. Antisense MP and PS oligonucleotides were obtained from commercial sources, as was synthetic sense RNA. Poly(rA) was obtained from Sigma Chemical Co. CC-1065 was obtained from the Upjohn Company. Oligonucleotides (0.075 μmol-P each) were mixed in 0.36 ml 0.01 M Na cacodylate buffer, pH 7.2, with CC-1065 in dimethyl formamide (0.04 ml), or with dimethylformamide only. (Note that “μmol-P” denotes μmoles of phosphate; i.e., μmoles of nucleotide bases, rather than of oligonucleotides per se.) Incubations of complementary strands, with or without drug, were carried out at 37° C. for 4 hr. In the initial experiments, unbound drug was separated from nucleotide duplexes by ethanol precipitation. Equivalent results were obtained by trapping the oligonucleotides and CC-1065 on NACS-52 columns, and washing first with low-salt buffer and then with buffer containing 1M NaCl. Unbound CC-1065 was completely retained on the column. […] Samples prepared in this manner could be directly used for determination of binding of the drug to the nucleic acid (as measured by the A365/A260 ratio), with the extinction of CC-1065 absorbance at 365 nm taken as 48,000, and the extinction of the nucleic acid absorption at 260 nm based on its composition. Similar approaches were used with the drug U-71,184, with an assumed extinction of 32,000 at 365 nm.
(§2) When methyl phosphonate and synthetic RNA were used, the purities of the crude oligonucleotides were taken to be about 30%, based on the data sheet prepared by the supplier. (The remainder comprised primarily truncated sequences.) Appropriate excess amounts of these agents were included in the reactions to ensure helix formation. The corresponding sense or antisense oligonucleotides were maintained at 0.075 μmol-P in the reaction. […] Unpurified materials were used in these preliminary studies because of the relatively high cost of purified oligoribonucleotides. The majority of the contributions to A260 for these samples should be due to material that was not duplexed.
(§3) Table 1 summarizes binding data obtained from incubations of CC-1065 with nucleotides at greater than stoichiometric levels; the levels used in these experiments were 1 drug molecule/10 nucleotide residues, which is equivalent to 4 drug molecules/20-mer duplex. […] There seemed to be no difference in drug binding between antisense oligonucleotides with a PO and those with a PS backbone. Again, the 5′-AGTTA-3′ sequence on the sense strand was presumably the primary target, and the 3′-AAGTA-5′ on the antisense probe was presumably the secondary target.

[2] = tested on: DNA sense (SEQ ID NO. 1) / DNA-PO antisense (SEQ ID NO. 2) duplex (PO-PO); experiment: Binding of drug to duplex (NACS column, A365/A260); design: species or system equine infectious anemia retrovirus; settings: for Final D/N (CC-1065/nucleotide) Bound to Duplex: PO-PO
Method: as §1, §2, §3

[3] = tested on: DNA sense (SEQ ID NO. 1) / DNA-MP antisense duplex (PO-MP); experiment: Binding of drug to duplex (NACS column, A365/A260); design: species or system equine infectious anemia retrovirus; settings: for Final D/N (CC-1065/nucleotide) Bound to Duplex: PO-MP
Method: as §1, §2, §3

[4] = tested on: DNA sense (SEQ ID NO. 1) / DNA-PS antisense duplex; experiment: Duplex strand separation temperature (Tm); type: binding, equine infectious anemia retrovirus
Method: (§4) Samples for determining Tm were also obtained by the above procedures. […] Thus the effects of this agent on Tm were carried out with Distamycin in solution with the duplexes tested.
(§5) Tm's were determined on a Gilford 2400 Spectrophotometer set at 260 nm, with a 4-chamber Peltier-based temperature controller. Temperature was ramped linearly at 0.5° C./min. Absorbance data were acquired with a 12-bit A/D converter, and data were processed with Lotus 123W and SigmaPlot software. Tm values were determined from the plots as the midpoint of the thermal transitions.

[5] = tested on: DNA sense (SEQ ID NO. 1) / DNA-MP antisense duplex (PO-MP); experiment: Duplex strand separation temperature (Tm); type: binding, equine infectious anemia retrovirus
Method: as §4, §5

[6] = tested on: DNA sense (SEQ ID NO. 1) / DNA-PO antisense duplex (PO-PO); experiment: Duplex strand separation temperature (Tm); type: binding, equine infectious anemia retrovirus
Method: as §4, §5

calf thymus DNA = settings: reported, cited from earlier work
[7] = saturation, initial CC-1065/nucleotide 0.1, 37° C., 4 hr

COc1c(O)c2c(c3cc(C(=O)N4CCc5c4c(O)c(OC)c4[nH]c(C(=O)N6CC7CC78C6=CC(=O)c6[nH]cc(C)c68)cc54)[nH]c13)CCN2C(N)=O (centres unmarked) [CC-1065]
Final D/N (CC-1065/nucleotide) Bound to Duplex ([1]; Initial D/N 0.01): 0.010 ± 0
Final D/N (CC-1065/nucleotide) Bound to Duplex ([1]; Initial D/N 0.025): 0.024 ± 0.0005
Final D/N (CC-1065/nucleotide) Bound to Duplex ([1]; Initial D/N 0.04): 0.032 ± 0.001
Final D/N (CC-1065/nucleotide) Bound to Duplex ([1]; Initial D/N 0.065): 0.047 ± 0.0005
Final D/N (CC-1065/nucleotide) Bound to Duplex ([1]; Initial D/N 0.10): 0.049 ± 0
Approx. No. CC-1065 Bound/20 Base Pairs [1, 7]: ~2
Final D/N (CC-1065/nucleotide) Bound to Duplex ([2]; Initial D/N 0.01): 0.009 ± 0.0004
Final D/N (CC-1065/nucleotide) Bound to Duplex ([2]; Initial D/N 0.025): 0.021 ± 0.001
Final D/N (CC-1065/nucleotide) Bound to Duplex ([2]; Initial D/N 0.04): 0.030 ± 0.0004
Final D/N (CC-1065/nucleotide) Bound to Duplex ([2]; Initial D/N 0.065): 0.049 ± 0.001
Final D/N (CC-1065/nucleotide) Bound to Duplex ([2]; Initial D/N 0.10): 0.053 ± 0.002
Approx. No. CC-1065 Bound/20 Base Pairs ([2]; saturation, initial CC-1065/nucleotide 0.1 (4 drug molecules per duplex), 37° C., 4 hr): ~2
Estimate of drug bound per duplex by titration with a range of MP ([3]; MP antisense oligonucleotides): # With MP antisense oligonucleotides, titration with a range of MP gave an estimate of 1 molecule bound per duplex. Precipitation with NaCl and EtOH gave similar results, but recoveries were lower. Single-strand components did not bind CC-1065.
Binding for MP antisense sequences ([3]; MP antisense sequences): about 1 drug molecule/duplex
Final D/N (CC-1065/nucleotide) Bound to Duplex ([3]; Initial D/N 0.025): 0.016 ± 0.0008
Final D/N (CC-1065/nucleotide) Bound to Duplex ([3]; Initial D/N 0.04, single determination): 0.019^4
Final D/N (CC-1065/nucleotide) Bound to Duplex ([3]; Initial D/N 0.10): 0.031 ± 0.001
Approx. No. CC-1065 Bound/20 Base Pairs [3, 7]: ~1
Tm ([4]; CC-1065 initial D/N = 0.025): 81.3 ± 2.3^4 °C
Tm ([4]; CC-1065 initial D/N = 0.1, minimum Tm estimate): ≥ 84.7 ± 1.5^4,5 °C
Duplex Strand Separation Temperature ([4]; DNA / DNA-PS, drug-bound duplex (Table 6)): ≥ 84.7 ± 1.5^4
Tm Elevation ([4]; PS-PS, highest level of binding obtained): 20.5 °C
Tm ([5]; CC-1065 initial D/N = 0.025): 73.0 ± 2.0^4 °C
Tm ([5]; CC-1065 initial D/N = 0.1): 74.0 ± 1.0^4 °C
Duplex Strand Separation Temperature ([5]; DNA / DNA-MP, drug-bound duplex (Table 6)): 74.0 ± 1.04
Tm Elevation ([5]; PO-MP, highest level of binding obtained): 21.5 °C
Tm ([6]; CC-1065 initial D/N = 0.025, 1M NaCl eluate): 81.7 ± 0.6^4 °C
Tm ([6]; CC-1065 initial D/N = 0.1, minimum Tm estimate (melting not completed)): ≥ 85.3 ± 2.3^4,5 °C
Duplex Strand Separation Temperature ([6]; DNA / DNA-PO, drug-bound duplex (Table 6)): ≥ 85.3 ± 2.3^4
Tm Elevation ([6]; PO-PO, highest level of binding obtained): 17.3 °C
Tm (calf thymus DNA; CC-1065 bound): ~100 °C
Increase in Tm (calf thymus DNA; under the conditions of the experiment): over 30 °C
